Measurements: patent EP4733299A1, “SULFUR-CONTAINING FUSED RING COMPOUND, PHARMACEUTICAL COMPOSITION CONTAINING SAME, AND PREPARATION METHOD THEREFOR AND USE THEREOF” (Shenzhen Braegen Pharmaceutical Co., Ltd., priority 2023, dated 2024)

Target: T1, a-Syn aggregates (Homo sapiens, UniProt P37840, A53T)
T1 construct: tissue The Jackson Laboratory 017682; host or cells: brain sections of rotenone-treated transgenic mice
Test: Binding specificity on brain slices of rotenone-treated SNCA transgenic mice
Details: for capture of a-Syn aggregates: brain slices, rotenone-treated SNCA Tg mice, Fig. 2
Procedure: To further explore whether the positive compounds selectively bind to Lewy bodies, brain slices from mice were used to test the binding specificity assays.
Staining with a-Synuclein protein coding gene (SNCA) transgenic mice (the Jackson Laboratory; stock numbers: 017682) were treated with rotenone (Oral gavage of rotenone under the following protocol: Mice were treated with 0.1 mL/25 g of vehicle containing 1% methylcellulose (Sigma, Catalog No.: M0512) and 1.25% chloroform (Sigma, Catalog No.: 2432) or a solution containing 0.625 mg/mL of rotenone (ULTRA Scientific, Catalog No.: PST-890) with 1% methylcellulose and 1.25% chloroform. We prepared rotenone solution by dissolving rotenone in chloroform and then diluting into 1% methylcellulose solution while mixing vigorously. Rotenone or vehicle control was orally administered with a 1.2 x 60 mm gavage (Unimed, Switzerland) once a day for 5 days/week, consecutively for 3 months.), which contains abundant LB-like inclusions. Furthermore, brain slices from NFT abundant Tau P301S mice and Aβ-enriched 5 x FAD mice were also used separately.
The brain slices were fixed and incubated for 12 h at 4 °C with primary antibodies followed by incubation with Alexa Fluor 568-, Alexa Fluor 488-, or Alexa Fluor 647-conjugated secondary antibodies (Invitrogen) for 3 h at room temperature. Then stained with ThS (Sigma, Catalog No.: T1892) or candidate compounds at room temperature, 4',6-diamidino-2-phenylindole (DAPI, 1 µg/ml) (Sigma-Aldrich) was used for the nuclear staining. The slides were imaged with Olympus FluoView FV1000 confocal laser scanning microscope using Olympus FluoView software to acquire data.

Compound | capture of a-Syn aggregates | co-localization with aggregates in the brain sections (positive control, mouse brain sections)
COc1cc(/C=C/c2nc3cc(C)c(N(C)CCOCCF)cc3s2)ccc1O [Compound A, (E)-4-(2-(6-((2-(2-fluoroethoxy)ethyl)(methyl)amino)-5-methylbenzo[d]thiazol-2-yl)vinyl)-2-methoxyphenol] | sensitively captured a-Syn aggregates | –
COc1cc(/C=C/c2nc3cc(C)c(N(C)CCOCCF)cc3s2)cc(Br)c1O [Compound S, (E)-2-bromo-4-(2-(6-((2-(2-fluoroethoxy)ethyl)(methyl)amino)-5-methylbenzo[d]thiazol-2-yl)vinyl)-6-methoxyphenol] | sensitively captured a-Syn aggregates | –
thioflavin-S [ThS, reference compound] | – | co-localized with all of these aggregates
